Columns and labels:
[1] = Pharmacokinetics of sofosbuvir and ledipasvir alone or in combination; format: in vivo; design: AUC(0-inf): concentration or dose not given beside the values; settings: for AUC(0-inf): plasma
[2] = Ledipasvir single-dose PK by concomitant food intake status; format: in vivo; settings: for CL/F: Ledipasvir 30 mg single dose, N = 8, mean
[3] = Compatibility/stability of sofosbuvir and ledipasvir:copovidone solid dispersion blend; format: physicochemical; settings: for Strength / Total Impurity Content: blend pellets, open glass vials
Description: The compatibility of sofosbuvir anhydrous crystalline drug substance was evaluated with the ledipasvir:copovidone solid dispersion. A blend of the sofosbuvir and ledipasvir:copovidone (1:1) solid dispersion was prepared at a ratio representative of the final 400 mg sofosbuvir/90 mg ledipasvir tablets. […]

[4] = pH-solubility profile and solubility in simulated intestinal media; format: physicochemical
Description: Excess solid ledipasvir was added to a range of pH-adjusted aqueous solutions (titrated with HCl or NaOH) and stirred for 48 hours at room temperature. The suspensions were then filtered through regenerated cellulose syringe filters. The pH value of the supernatant was measured, and the supernatant was diluted as appropriate with 50:50 H2O+0.1% TFA:ACN and assayed for ledipasvir content by the HPLC-UV method.
Solubility of ledipasvir amorphous free base was assessed in three types of simulated intestinal fluids at pH 6.5 or pH 5.0; and simulated intestinal bile salt and lecithin mixture (SIBLM), pH 6.4. Excess solid ledipasvir was added to the respective SIFs and stirred for 48 hours at room temperature. The resulting suspensions were then filtered through regenerated cellulose syringe filters. The supernatant was diluted as appropriate with 50:50 H2O+0.1% TFA:ACN and assayed for ledipasvir content by the HPLC-UV method.

HCV = experiment: Dose selection: antiviral response and Emax PK/PD modeling; format: in vivo, Hepatitis C virus; settings: for breakthrough (BT) rate: in combination with other therapeutic agents
Description: The sofosbuvir dose selected for the tablet formulation is 400 mg once daily. Support for the 400 mg sofosbuvir dose can be derived from Emax PK/PD modeling with early virological and human exposure data which also supports the selection of a 400 mg sofosbuvir dose over others tested.
The mean sofosbuvir major metabolite AUCtau for the 400 mg sofosbuvir dose is associated with approximately 77% of the maximal HCV RNA change from baseline achievable as determined by this model, a value which is on the cusp of the plateau of the exposure-response sigmoidal curve. […] Therefore, given that sofosbuvir exposure with 200 mg tablets appears dose-proportional with single doses up to 1200 mg, doses below 400 mg are expected to yield considerable reductions in the magnitude of HCV RNA change from baseline.
The sofosbuvir dose of 400 mg once daily was associated with higher SVR rates in genotype 1 HCV infected patients as compared to the 200 mg once daily dose when given in conjunction with additional HCV therapeutics for 24 weeks. Safety and tolerability appeared similar across both dose levels. In addition, when sofosbuvir 400 mg once daily plus other HCV therapeutics were given to genotype 2 or 3 HCV infected patients, 100% SVR24 was observed.
The maximum median HCV RNA log 10 reduction was 3 or greater for all cohorts dosed with ≥3 mg of ledipasvir. […] Therefore, 30 mg and 90 mg of ledipasvir were selected as the dose for the formulations described herein.
Therefore, the 90 mg dose of ledipasvir may confer a greater antiviral coverage that prevents viral breakthrough.

[5] = pH-solubility profile and solubility in simulated intestinal media; format: physicochemical; remark: listed apart in the source
[6] = PK of Sofosbuvir/Ledipasvir tablets fasted or with meals; settings: for AUC(0-inf) / AUC(0-t) / Cmax: plasma, po, plasma analyte, n = 29, mean (% CV); for AUC(0-inf): AUCinf; for AUC(0-t): AUClast
[7] = Sofosbuvir + Ledipasvir vs single agent alone
[8] = po, plasma analyte, Ledipasvir alone, n = 17, mean (% CV)
[9] = nonlinear least-square regression fit of pH-solubility profile
[10] = Sofosbuvir/Ledipasvir Tablet, Fasted
[11] = Sofosbuvir/Ledipasvir Tablet, High-Calorie/High-Fat Meal
[12] = Sofosbuvir/Ledipasvir Tablet, Moderate-Fat Meal

## COC(=O)N[C@H](C(=O)N1CC2(CC2)C[C@H]1c1ncc(-c2ccc3c(c2)C(F)(F)c2cc(-c4ccc5nc([C@@H]6[C@H]7CC[C@H](C7)N6C(=O)[C@@H](NC(=O)OC)C(C)C)[nH]c5c4)ccc2-3)[nH]1)C(C)C [Ledipasvir, (1-{3-[6-(9,9-difluoro-7-{2-[5-(2-methoxycarbonylamino-3-methyl-butyryl)-5-aza-spiro[2.4]hept-6-yl]-3H-imidazol-4-yl}-9H-fluoren-2-yl)-1H-benzoimidazol-2-yl]-2-aza-bicyclo[2.2.1]heptane-2-carbonyl}-2-methyl-propyl)-carbamic acid methyl ester]
[1]; [7]
  % GMR (90% CI) of AUCinf: 95.7 (92.1, 99.5) %
  % GMR (90% CI) of AUClast: 96.5 (89.9, 104) %
  % GMR (90% CI) of Cmax: 95.5 (91.9, 99.1) %
[1]; [8]
  AUC(0-inf): 11900 ng·h/mL
  Cmax: 375 ng/mL
[1]; po, plasma analyte, Sofosbuvir + Ledipasvir, n = 17, mean (% CV)
  AUC(0-inf): 11400 ng·h/mL
[2]; Ledipasvir 30 mg
  AUCinf GLSM Ratio (Fed/Fasted): 55.55%
  AUClast GLSM Ratio (Fed/Fasted): 56.71%
  Cmax GLSM Ratio (Fed/Fasted): 54.90%
[2]; fasted
  CL/F: 17,034.5 mL/h
[2]; fed (high-fat meal)
  CL/F: 26,917.9 mL/h
[2]; high-fat meal vs fasted, 30 mg
  decrease each in mean Cmax, AUClast, and AUCinf: approximately 45%
[2]; ledipasvir alone in a conventional formulation
  decrease in exposure with a high-fat meal relative to fasted state: roughly 2 fold
[3]; 40° C./75% RH and 60° C./ambient humidity, two and four weeks
  degradation in blend with the other active: no degradation was observed
[3]; 45° C./75% RH, 0 weeks
  Strength: 98.8%
  Total Impurity Content: 0.0%
[3]; 45° C./75% RH, 2 weeks
  Strength: 96.9%
  Total Impurity Content: 0.0%
[3]; 45° C./75% RH, 4 weeks
  Strength: 97.1%
  Total Impurity Content: 0.0%
[3]; 60° C., 0 weeks
  Strength: 98.8%
  Total Impurity Content: 0.0%
[3]; 60° C., 1 week
  Strength: 99.2%
  Total Impurity Content: 0.0%
[3]; 60° C., 2 weeks
  Strength: 99.6%
  Total Impurity Content: 0.0%
[3]; 60° C., 4 weeks
  Strength: 98.9%
  Total Impurity Content: 0.0%
[4]
  BCS classification: BCS Class 2
[4]; [9]
  pKa1: 5.0
  pKa2: 4.0
HCV; 30 mg dose, genotype 1a HCV infected patients
  share of maximal antiviral response (Emax PK/PD model): > 95%
HCV; 30 mg, 11/33
  breakthrough (BT) rate: 33%
HCV; 90 mg, 9/74
  breakthrough (BT) rate: 12%
[5]
  permeability: high permeability
[6]; Sofosbuvir/Ledipasvir Tablet
  % GMR (90% CI) [Moderate-Fat/Fasted] of AUCinf: 115 (99.4, 134) %
  % GMR (90% CI) [Moderate-Fat/Fasted] of AUClast: 114 (98.0, 133) %
  % GMR (90% CI) [Moderate-Fat/Fasted] of Cmax: 109 (93.5, 126) %
  GMR (90% CI) [High-Fat/Fasted] of AUCinf: 103 (88.5, 119) %
  GMR (90% CI) [High-Fat/Fasted] of AUClast: 104 (88.8, 121) %
  GMR (90% CI) [High-Fat/Fasted] of Cmax: 88.2 (75.8, 103) %
[6]; [10]
  AUC(0-inf): 10600 ng·h/mL
  AUC(0-t): 8600 ng·h/mL
  Cmax: 324 ng/mL
[6]; [11]
  AUC(0-inf): 9220 ng·h/mL
  AUC(0-t): 7550 ng·h/mL
  Cmax: 255 ng/mL
[6]; [12]
  AUC(0-inf): 10600 ng·h/mL
  AUC(0-t): 8650 ng·h/mL
  Cmax: 319 ng/mL
[6]; sofosbuvir/ledipasvir composition, fed vs fasted
  effect of food on pharmacokinetics: does not appear to be altered by food
